Peptide text beside a SMILES is read from it. * marks the point of attachment. Cbz = O=C(OCc1ccccc1)*; CH2F = FC*
Legend:
CAD = target: T1, CAD (Homo sapiens, UniProt O76075); assay: Assay A: Inhibition of the CAD-dependent DNA-damage response (DDR), γH2AX Western blot; type: cell-based; conditions: HeLa229-Tir1-iCAD-mAID-GFP cells, compound 10 μM pre-incubated 1 hour, auxin 5 μM 4 hours
T1 construct: endogenous in cells; host or cells: HeLa229-Tir1-iCAD-mAID-GFP cells
T1 sequence (O76075 1-338): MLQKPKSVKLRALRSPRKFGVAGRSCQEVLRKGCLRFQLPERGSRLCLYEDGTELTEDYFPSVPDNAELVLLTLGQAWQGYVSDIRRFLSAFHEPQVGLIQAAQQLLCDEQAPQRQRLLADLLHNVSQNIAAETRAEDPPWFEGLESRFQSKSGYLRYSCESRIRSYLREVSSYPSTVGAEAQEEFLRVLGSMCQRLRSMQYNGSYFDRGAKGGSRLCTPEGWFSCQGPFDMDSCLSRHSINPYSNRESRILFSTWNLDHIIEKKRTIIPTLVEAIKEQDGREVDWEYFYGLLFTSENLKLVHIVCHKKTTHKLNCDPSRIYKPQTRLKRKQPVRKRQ
Procedure: Cells were seeded, pre-incubated with the individual compounds and treated with auxin. The DDR (a consequence of CAD-activity) was measured by Western blotting for the marker γH2AX. […] Such preferred compounds are: MB4, MB26; MB33; MB37; CBN16; CBN17; CBN40; CBN62; CBN65; CBN66; CBN68; CD9 and CD22.
FIG. 11 Confirmation of CAD-inhibition: auxin-dependent DDR. HeLa229-Tir1-iCAD-mAID-GFP cells were seeded on a 48-well plate (50,000 cells/well). 24 hours later, cells were pre-incubated (or not) with the indicated compounds (Comp, 10 μM) for 1 hour, followed by auxin treatment [5 μM] for 4 hours. Cells were lysed in Laemmli buffer and lysates were loaded onto SDS-PAGE followed by Western blotting against the indicated proteins. The DNA damage marker γH2AX was used as an indicator of CAD activity. The two left lanes of each gel are negative and positive controls (without and with auxin but without compound; instead, DMSO was used as solvent control). Compounds are indicated at the top.

caspase-activated CAD = target: T2, caspase-activated CAD (Homo sapiens, UniProt O76075); assay: Assay B: Inhibition of caspase-activated CAD (ABT-737 plus S63845, γH2AX); type: cell-based; conditions: HeLa229-CTRL3 cells, compound pre-treatment 1 hour, ABT-737 50 nM plus S63845 250 nM 2.5 hours
T2 construct: endogenous in cells; host or cells: HeLa229-CTRL3 cells (LentiCRISPRV2_puro with non-targeted gRNA)
T2 sequence (O76075 1-338): T1 sequence (O76075 1-338)
Procedure: FIG. 12 Activity of compounds against caspase-activated CAD A, HeLa229-CTRL3 cells (transduced with a LentiCRISPRV2_puro virus encoding a non-targeted gRNA) or Hela229 cells transduced with a CAD-targeted LentiCrisprV2 virus (resulting in CAD-deficient cells (CAD KO)) were seeded as described in FIG. 11 and stimulated with […] ABT-737 [50 nM] plus S63845 [250 nM] for 2.5 hours the next day. Subsequent analysis of the cells was performed as described in FIG. 11.
FIG. 12B, HeLa229-CTRL3 cells were seeded as in A and pre-treated (or not) with the indicated compounds and concentrations (Comp) for 1 hour, followed by treatment with ABT-737 plus […] for 2.5 hours. Proteins were detected as described in FIG. 11.
While in the screening we activated CAD with auxin-induced degradation of its inhibitor, CAD is physiologically activated by caspases. […] Test compounds were added 1 h previously. The activity of CAD was measured by the DDR as above (γH2AX). […] The compounds that will be used to inhibit CAD are shown in boxes. Such preferred compounds are: CBN16; CBN17; CBN62; CBN65; CBN66; CBN68; MB4; CD9; CD22 and MB26.

HeLa cells = assay: Chromosomal missegregation (CIN) and micronuclei in cancer cells; type: cell-based, human; conditions: cells incubated for one day with caspase-inhibitor
Description: A, the various pictures of chromosomal missegregation/misalignment are shown as examples (left) and enumerated in HeLa cells (cervical carcinoma line; ctrl., control; CAD, lacking CAD; STING, lacking STING; STING is not relevant to this invention).
C, missegregation in HeLa cells with inhibition in the mitochondrial apoptosis apparatus. Symbols as in A. zVAD-fmk is a small molecule pan-caspase-inhibitor. Apaf-1 is an adapter protein of caspase-9 that is required for caspase-activation upon release of cytochrome c from mitochondria. Both Bax and Bak can directly release cytochrome c, and the presence of at least one of them is required for mitochondrial apoptosis. Bcl-XL is a mitochondrial protein that blocks the activation and activity of Bax and Bak and thereby inhibits apoptosis. […]
Metastasis is linked in the literature to chromosomal instability (CIN), most likely because DNA-ligands are generated that stimulate the cells. […] This is clear because cancer cells modified to lack CAD or components of the (CAD-activating) mitochondrial apoptosis apparatus, or where apoptosis signaling was blocked using a chemical caspase inhibitor (zVAD-fmk), all show reduced CIN (measured as chromosomal missegregation, for instance as chromatin-bridges in dividing cells) and numbers of MN (FIG. 1). […]

cancer cells = assay: Aggressive cancer growth in vitro (migration, invasion through a basement membrane, colony formation on soft agar); type: cell-based; conditions: caspase-inhibition by the pan-caspase-inhibitor
Description: A, migratory activity of cells with or without CAD (scratch assay). Percentages of the area closed upon scratch are given. In this assay, a monolayer of cells is mechanically scratched, and the cells migrate back to fill the gap. The speed with which they migrate is a measure of their migratory capacity.
B-D invasion through a basement membrane (number of cells are given that had invaded).
E, colony formation in soft agar (number of colonies). The invasion assay uses a basement membrane in a culture dish. The cells are seeded on top of the membrane, and after a predetermined time (here: 24 h), the number of cells at the bottom of the membrane is determined. This is a measure of the capacity of the cells to invade tissue. Colony formation measures a capacity also termed ‘anchorage-independent growth’. It is a particular capacity of metastatic cells to be able to grow to colonies without support from other cells of solid support (as in a plastic dish). Individual cells are seeded in soft agar to immobilize them and to test whether the single cells can grow and form colonies, a feature of metastatic cells. The number of colonies formed is then measured.
The cell lines and conditions were described in the legend to FIG. 1. zVAD, caspase-inhibitor zVAD-fmk. Ctrl., control cells; the other cell lines are labelled according to their genetic modification (gene deletion; Bcl-XL-overexpression). […]

SMILES | Inhibition of auxin-dependent DDR (γH2AX) (CAD) | CAD-inhibitory activity against caspase-activated CAD (γH2AX) (caspase-activated CAD) | CIN (chromosomal missegregation) (HeLa cells) | numbers of MN (micronuclei) (HeLa cells) | aggressive growth in vitro (migration, invasion, colony formation) (cancer cells)
O=C1/C(=C/c2ccccn2)N2CCC1CC2 [CBN16, (2Z)-2-(pyridin-2-ylmethylidene)-1-azabicyclo[2.2.2]octan-3-one] | blocked the DDR | CAD-inhibitory activity | – | – | –
CC(=O)Nc1nc([N+](=O)[O-])n(-c2ccccc2)n1 [CBN17, N-(5-nitro-1-phenyl-1,2,4-triazol-3-yl)acetamide] | blocked the DDR | CAD-inhibitory activity | – | – | –
COc1cc(/C=C2/CCC/C(=C\c3ccc(O)c(OC)c3)C2=O)ccc1O [CBN40, (2E,6Z)-2,6-bis[(4-hydroxy-3-methoxyphenyl)methylidene]cyclo-hexan-1-one] | blocked the DDR | – | – | – | –
O=C(Cn1ncc(Cl)c(Cl)c1=O)Nc1ccc(N2CCCC2)cc1 [CBN62, 2-(4,5-dichloro-6-oxopyridazin-1-yl)-N-(4-pyrrolidin-1-ylphenyl)acetamide] | blocked the DDR | CAD-inhibitory activity | – | – | –
O=C1NC(=S)NC(=O)C1=Cc1c2ccccc2cc2ccccc12 [CBN65, 5-(anthracen-9-ylmethylidene)-2-sulfanylidene-1,3-diazinane-4,6-dione] | blocked the DDR | CAD-inhibitory activity | – | – | –
Cc1nn(Cc2ccc(Cl)c(Cl)c2)c(C)c1NC(=O)CCCS(=O)(=O)c1nc(-c2cccs2)cc(C(F)(F)F)n1 [CBN68, N-[1-[(3,4-dichlorophenyl)methyl]-3,5-dimethylpyrazol-4-yl]-4-[4-thiophen-2-yl-6-(trifluoromethyl)pyrimidin-2-yl]sulfonylbutanamide] | blocked the DDR | CAD-inhibitory activity | – | – | –
Clc1ncnc2c1C(c1ccc(Br)cc1)c1c(Cl)ncnc1O2 [CD9, 9-(4-bromophenyl)-7,11-dichloro-2-oxa-4,6,12,14-tetrazatricyclo[8.4.0.0^3,8] tetradeca-1(10),3(8),4,6,11,13-hexaene] | blocked the DDR | CAD-inhibitory activity | – | – | –
O=c1c(Cl)c(Cl)cnn1-c1ccccc1 [CD22, 4,5-dichloro-2-phenylpyridazin-3-one] | blocked the DDR | CAD-inhibitory activity | – | – | –
O=[N+]([O-])c1ccc(C=Nc2cc(C(F)(F)F)ccc2N2CCOCC2)s1 [MB4, N-[2-morpholin-4-yl-5-(trifluoromethyl)phenyl]-1-(5-nitrothiophen-2-yl)methanimine] | blocked the DDR | CAD-inhibitory activity | – | – | –
Cc1ccc(Sc2ccc([N+](=O)[O-])c3nonc23)cc1 [MB26, 4-(4-methylphenyl)sulfanyl-7-nitro-2,1,3-benzoxadiazole] | blocked the DDR | CAD-inhibitory activity | – | – | –
COc1cc(/C=C2\CCc3ccccc3C2=O)cc(OC)c1OC [MB33, (2E)-2-[(3,4,5-trimethoxyphenyl)methylidene]-3,4-dihydronaphthalen-1-one] | blocked the DDR | – | – | – | –
COc1cc(/C=C2\CCc3ccccc3C2=O)cc(OC)c1 [MB37, (2E)-2-[(3,5-dimethoxyphenyl)methylidene]-3,4-dihydronaphthalen-1-one] | blocked the DDR | – | – | – | –
COC(=O)C[C@H](NC(=O)[C@H](C)NC(=O)[C@@H](NC(=O)OCc1ccccc1)C(C)C)C(=O)CF [zVAD-fmk] (Cbz-Val-Ala-Asp(OMe)-CH2F) | – | – | reduced CIN | reduced | less aggressive growth

— patent US20260185980A1, “METHOD OF PREVENTING AND/OR REDUCING METASTASIS OF TUMOR CELLS, PREVENTING OR REDUCING SENESCENCE, INHIBITING DIFFERENTIATION AND OF REDUCING INFLAMMATION” (Albert-Ludwigs-Universitaet, priority 2022, published 2026)
